Source: patent US20070265170A1, “DETECTION, PREVENTION AND TREATMENT OF OVARIAN CANCER” (priority 2006, published 2007)

B1: Ceruloplasmine (protein, UniProt P00450 20-1065, looked up)
Ceruloplasmin: KEKHYYIGIIETTWDYASDHGEKKLISVDTEHSNIYLQNGPDRIGRLYKKALYLQYTDETFRTTIEKPVWLGFLGPIIKAETGDKVYVHLKNLASRPYTFHSHGITYYKEHEGAIYPDNTTDFQRADDKVYPGEQYTYMLLATEEQSPGEGDGNCVTRIYHSHIDAPKDIASGLIGPLIICKKDSLDKEKEKHIDREFVVMFSVVDENFSWYLEDNIKTYCSEPEKVDKDNEDFQESNRMYSVNGYTFGSLPGLSMCAEDRVKWYLFGMGNEVDVHAAFFHGQALTNKNYRIDTINLFPATLFDAYMVAQNPGEWMLSCQNLNHLKAGLQAFFQVQECNKSSSKDNIRGKHVRHYYIAAEEIIWNYAPSGIDIFTKENLTAPGSDSAVFFEQGTTRIGGSYKKLVYREYTDASFTNRKERGPEEEHLGILGPVIWAEVGDTIRVTFHNKGAYPLSIEPIGVRFNKNNEGTYYSPNYNPQSRSVPPSASHVAPTETFTYEWTVPKEVGPTNADPVCLAKMYYSAVEPTKDIFTGLIGPMKICKKGSLHANGRQKDVDKEFYLFPTVFDENESLLLEDNIRMFTTAPDQVDKEDEDFQESNKMHSMNGFMYGNQPGLTMCKGDSVVWYLFSAGNEADVHGIYFSGNTYLWRGERRDTANLFPQTSLTLHMWPDTEGTFNVECLTTDHYTGGMKQKYTVNQCRRQSEDSTFYLGERTYYIAAVEVEWDYSPQREWEKELHHLQEQNVSNAFLDKGEFYIGSKYKKVVYRQYTDSTFRVPVERKAEEEHLGILGPQLHADVGDKVKIIFKNMATRPYSIHAHGVQTESSTVTPTLPGETLTYVWKIPERSGAGTEDSACIPWAYYSTVDQVKDLYSGLIGPLIVCRRPYLKVFNPRRKLEFALLFLVFDENESWYLDDNIKTYSDHPEKVNKDDEEFIESNKMHAINGRMFGNLQGLTMHVGDEVNWYLMGMGNEIDLHTVHFHGHSFQYKHRGVYSSDVFDIFPGTYQTLEMFPRTPGIWLLHCHVTDHIHAGMETTYTVLQNEDTKSG

Assays:
β3GlcNAcT = β3GlcNAcT acceptor specificity; conditions: acceptor substrate; lactose (4) = 100%
chicken ST6GalNAc-I = biological target: T1, chicken ST6GalNAc-I (Gallus gallus, UniProt Q92183); test: chST6GalNAc-I activity on small acceptor molecules; format: biochemical; conditions: α-D-galacto derivatives as acceptors
T1 construct: made in house; host or cells: insect cells
T1 sequence (Q92183 whole entry): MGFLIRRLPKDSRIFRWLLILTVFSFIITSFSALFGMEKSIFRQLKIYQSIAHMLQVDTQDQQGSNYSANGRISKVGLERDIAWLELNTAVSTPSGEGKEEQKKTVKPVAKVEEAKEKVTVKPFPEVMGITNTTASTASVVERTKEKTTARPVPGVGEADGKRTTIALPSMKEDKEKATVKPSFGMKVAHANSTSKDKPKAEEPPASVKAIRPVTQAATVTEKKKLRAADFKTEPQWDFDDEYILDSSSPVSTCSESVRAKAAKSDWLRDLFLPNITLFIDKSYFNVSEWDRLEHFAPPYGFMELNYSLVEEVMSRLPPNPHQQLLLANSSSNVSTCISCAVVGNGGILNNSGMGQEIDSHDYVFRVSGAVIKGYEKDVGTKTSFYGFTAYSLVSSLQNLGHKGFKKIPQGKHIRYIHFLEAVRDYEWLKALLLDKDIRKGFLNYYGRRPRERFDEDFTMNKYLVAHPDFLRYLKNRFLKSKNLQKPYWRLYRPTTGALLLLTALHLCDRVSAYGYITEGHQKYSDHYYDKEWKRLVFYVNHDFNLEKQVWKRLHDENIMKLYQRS
Description: The inventors have previously reported the cloning, expression, and characterization of chicken ST6GalNAc-I and its use in preparative synthesis of the O-linked sialoside antigens, STn-, α(2-6)SiaT-, α(2-3)SiaT- and Di-SiaT-antigen. Blixt, O.; Allin, K.; Pereira, L.; Datta, A. and Paulson, J. C., J. Am. Chem. Soc. 2002, 124, 5739-5746. Briefly, the recombinant enzyme was expressed in insect cells and purified by CDP-sepharose affinity chromatography to generate approximately 10 U/L of cell culture.

[1] = test system: anti-carbohydrate antibodies in sera of metastatic breast cancer patients; test: Glycan array with sera of metastatic breast cancer patients; format: binding, human; conditions: sera diluted 1:25; for binding by antibodies from metastatic breast cancer patients: 9 MBC patients; for level of serum antibodies against the glycan in MBC patients compared to healthy individuals: relative fluorescence, FIG. 8-9
Description: Individual (not pooled) sera were collected from 9 patients who were diagnosed with metastatic breast cancer (MBC). Blood samples were collected before treatment, so that therapeutic intervention would not interfere with patient immune responses. One patient with breast cancer but with good prognosis (IDC, Stage 1) was also included in the study. As control, or “healthy” sera, sera from ten healthy individuals, 5 female and 5 male, with no known malignancies was collected.
Sera were diluted 1:25 with PBS containing 3% BSA, and placed on the glycan array slide in humidified chamber at room temperature for 90 min. The glycan array slide was then rinsed gently with PBS/0.05% Tween, incubated with biotinylated goat antibody against human IgG, IgM and IgA, rinsed in PBS/0.05% Tween, and incubated with streptavidin-Alexa488 fluorescent dye. Following rinses in PBS/0.05% Tween and H2O, glycan array slides were dried and scanned using the commercial DNA array scanner. […] Signal to background was typically greater 50:1 and no background subtractions were performed. Data were plotted using MS Excel software.

[2] = test system: Human anti-HIV 2G12 monoclonal antibody; test: Glycan array binding of 2G12; conditions: 2G12 30 μg/mL pre-complexed with goat anti-human-IgG-FITC
Description: Glycan array fabrication.
Glycan Binding Protein binding assay.
Image acquisition and signal processing. […] Data were plotted using MS Excel software.

Row | Molecule | binding by antibodies from metastatic breast cancer patients [1] | level of serum antibodies against the glycan in MBC patients compared to healthy individuals [1] | further results
1 | OCC1O[C@@H](O)C(O)[C@@H](O)[C@@H]1O[C@@H]1OC(CO)[C@H](O)[C@H](O)C1O (stereo partly drawn) [Compound 4] |  |  | Relative enzyme activity (%) β(1-3)GlcNAcT-activity (β3GlcNAcT): 100%
2 | CC(=O)N[C@H]1C(O)O[C@H](CO)[C@H](O)[C@@H]1O (stereo partly drawn) [D-GalNAc] |  |  | chST6GalNac-I Activity, cpm (chicken ST6GalNAc-I): 0 cpm; chST6GalNac-I Activity, nmol/mg × min^−1 (chicken ST6GalNAc-I): 0.00 nmol/mg × min^−1
3 | Ab3ANb4[NNa3]Ab4Gb#sp1 GM1 [Glycan 58] | bind | higher than in the healthy individuals | 
4 | Fa2Ab3Anb3Aa4Ab4G#sp3 Globo-H [Glycan 97] | bind | higher than in the healthy individuals | 
5 | GNb3Ab4Gb#sp1 LNT-2 [Glycan 123] | bind | higher than in the healthy individuals | 
6 | Man-9#aa Man9-aminoacid [Glycan 145] |  |  | 2G12 binding to arrayed glycan [2]: smaller level of binding
7 | NJa6ANa#sp2 Neu5Gc6GalNAc (STn) [Glycan 155] | bind |  | 
8 | NNa6ANa#sp2 6SiaβGalNAc [Glycan 190] | bind | significantly higher levels | 
9 | B1 | bind | significantly higher levels | 
